Reference: patent publication US20180370912A1, “COMPOUNDS AND METHODS FOR TREATING DISEASES MEDIATED BY PROTEIN DISULFIDE ISOMERASE” (Beth Israel Deaconess Medical Center, Inc., priority 2017, published 2018)

Key:
ERp57 = target: T1, ERp57 (Homo sapiens, UniProt P30101); assay: Maleimide-polyethylene glycol-2-biotin (MPB) binding; settings: 150 μM inhibitor, FIG. 2c, FIG. 8
T1 construct: FLAG; made in house; host or cells: Escherichia coli Origami B (DE3), pET-15b
T1 sequence (P30101 25-505): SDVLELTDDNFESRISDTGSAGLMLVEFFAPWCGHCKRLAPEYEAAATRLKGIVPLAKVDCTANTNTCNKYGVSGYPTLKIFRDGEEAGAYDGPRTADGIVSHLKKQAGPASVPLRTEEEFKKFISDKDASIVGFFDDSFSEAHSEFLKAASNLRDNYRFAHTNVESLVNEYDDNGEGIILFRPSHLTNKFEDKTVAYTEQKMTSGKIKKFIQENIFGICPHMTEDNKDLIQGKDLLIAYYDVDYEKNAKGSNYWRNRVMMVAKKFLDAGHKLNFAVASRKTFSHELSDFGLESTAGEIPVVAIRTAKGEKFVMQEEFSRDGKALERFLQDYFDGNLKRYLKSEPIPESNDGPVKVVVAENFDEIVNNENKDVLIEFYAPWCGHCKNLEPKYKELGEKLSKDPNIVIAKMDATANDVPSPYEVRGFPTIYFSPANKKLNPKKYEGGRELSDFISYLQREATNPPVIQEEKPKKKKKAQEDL
Procedure: Maleimide-Polyethanol glycol-2-Biotin (MPB) binding experiments were performed in a reaction volume of 37.5 μL with 5 μM of thiol isomerase or bovine serum albumin (BSA) in Tris-buffered saline (TBS), in the presence and absence of 1 mM of N-ethylmaleimide (NEM) or bacitracin, and 150 μM of the mentioned other inhibitors. The reaction mixture was incubated at 37° C. for 1 hour. Subsequently, the reaction mixtures were incubated with 25 μM of MPB. The labeling was performed for 20 minutes at 25° C. A total of 12.5 μL of 4× Laemmli Sample Buffer with 5% β-mercaptoethanol was added to each of the samples, followed by heating at 95° C. for 10 minutes. From each sample, 10 μL was loaded on a 12% SDS-PAGE gel, followed by transfer on a nitrocellulose membrane. After blocking the membrane with TBS-T containing 5% BSA for one hour, the membrane was incubated with a 1:2000 dilution of Cy5-tagged Streptavidin for an hour in the dark. Detection of the immunoblots was performed using ImageQuant LAS 4000 and analysis was performed using ImageQuant TL software.

abb′x fragment of PDI = target: T2, abb′x fragment of PDI (Homo sapiens, UniProt P07237); assay: Proteolysis assay with proteinase K
T2 construct: 1.25 μg of the abb′x fragment; His; made in house; host or cells: Escherichia coli Origami B (DE3), pET-15b
T2 sequence (P07237 18-368 limits assumed): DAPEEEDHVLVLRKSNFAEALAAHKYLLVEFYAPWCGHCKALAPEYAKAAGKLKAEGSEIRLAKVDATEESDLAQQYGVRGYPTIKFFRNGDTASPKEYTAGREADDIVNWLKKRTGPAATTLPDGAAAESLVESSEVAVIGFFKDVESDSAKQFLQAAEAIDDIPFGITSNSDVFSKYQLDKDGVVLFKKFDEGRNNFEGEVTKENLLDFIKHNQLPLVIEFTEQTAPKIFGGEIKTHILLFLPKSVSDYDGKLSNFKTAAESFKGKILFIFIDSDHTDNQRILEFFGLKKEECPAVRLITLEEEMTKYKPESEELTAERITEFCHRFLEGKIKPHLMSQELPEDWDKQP
Procedure: Proteinase K (2 μg/mL) was incubated with 1.25 μg of the abb′x fragment in 50 mM Tris-HCl containing 5 mM CaCl2 and 10 mM DTT. Reactions were aborted with the addition of 0.5 mM phenylmethanesulfonyl fluoride (PMSF). Subsequently, samples were subjected to Laemmli Sample buffer with 5% β-mercaptoethanol and heated at 95° C. for 10 minutes. Each sample was loaded on a 12% SDS-PAGE gel, followed by silver staining using the Pierce Silver Stain Kit (Thermo Scientific).

human wild-type PDI = target: T3, human wild-type PDI (Homo sapiens, UniProt P07237); assay: Redox potential determination by differential cysteine alkylation and mass spectrometry
T3 construct: FLAG; made in house; host or cells: Escherichia coli Origami B (DE3), pET-15b
T3 sequence (P07237 18-508): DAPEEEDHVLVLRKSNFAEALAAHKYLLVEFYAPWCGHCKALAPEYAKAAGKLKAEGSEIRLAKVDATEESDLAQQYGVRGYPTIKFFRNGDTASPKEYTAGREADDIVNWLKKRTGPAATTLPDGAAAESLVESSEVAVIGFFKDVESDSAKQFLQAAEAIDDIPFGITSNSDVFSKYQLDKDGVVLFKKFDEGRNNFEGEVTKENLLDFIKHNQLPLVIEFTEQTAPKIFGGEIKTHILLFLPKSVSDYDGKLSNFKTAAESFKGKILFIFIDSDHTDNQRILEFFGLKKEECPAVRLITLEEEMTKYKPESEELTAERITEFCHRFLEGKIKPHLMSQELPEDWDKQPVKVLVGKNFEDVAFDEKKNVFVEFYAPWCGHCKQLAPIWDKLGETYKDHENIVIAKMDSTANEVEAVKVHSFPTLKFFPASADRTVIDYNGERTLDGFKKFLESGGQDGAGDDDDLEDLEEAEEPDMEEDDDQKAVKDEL
Procedure: The redox potentials of the a (Cys53-Cys56) and a′ (Cys397-Cys400) active-site dithiols/disulfides of human wild-type PDI in the absence or presence of bepristat 2b were determined by differential cysteine alkylation and mass spectrometry. Recombinant PDI (5 μM) was incubated in the absence or presence of bepristat 2b (50 μM) in argon-flushed phosphate-buffered saline containing 0.1 mM EDTA, 0.2 mM oxidized glutathione (GSSG, Sigma) and various concentrations of reduced glutathione (GSH, Sigma) for 18 h at room temperature. Microcentrifuge tubes were flushed with argon prior to sealing to prevent oxidation by ambient air during the incubation period. […]
The fraction of reduced active-site disulfide bond was measured from the relative ion abundance of peptides containing ^12C-IPA and ^13C-IPA. […] The area was calculated using the automated peak detection function built into the software. […] The results were expressed as the ratio of reduced to oxidized protein and fitted to equation 1: […]
where R is the fraction of reduced protein at equilibrium, B is the baseline fraction of the cysteine in the population that is in the reduced state and Keq is the equilibrium constant. The standard redox potential (E^0′) of the PDI active-site disulfides were calculated using the Nernst equation (equation 2): […]

Structure (SMILES) | reaction of MPB with the catalytic cysteines of ERp57 (ERp57) | proteinase K activity (cleavage of ERp5) (abb′x fragment of PDI; control, not shown) | cleavage of abb′x by proteinase K (abb′x fragment of PDI; presence versus absence of compound, FIG. 5b) | active site disulfide bond formation under equilibrium conditions (human wild-type PDI)
C#CC(=O)N(c1ccc(OC)cc1OC)C(C(=O)NCC(=O)OCC)c1cccs1 (stereo not shown) [PACMA-31, N-(2,4-Dimethoxyphenyl)-N-(1-oxo-2-propyn-1-yl)-2-(2-thienyl)glycyl-glycine ethyl ester, reference compound] | interfered with the reaction of maleimide-polyethylene glycol-2-biotin (MPB) | – | – | –
CCOC(=O)c1c(CNCCN(CC)CC)n(-c2ccccc2)c2cc(Br)c(O)cc12 [bepristat 2a] | – | did not interfere with proteinase K activity | occurred more rapidly | impairs active site disulfide bond formation
